Data: US8119116B2, “Therapeutics for cancer using 3-bromopyruvate and other selective inhibitors of ATP production” (John Hopkins University School of Medicine, priority 2001, dated 2012)

Tests used:
[1] = test system: rabbit VX2 tumor mitochondria; test: Mitochondrial respiration (oxygen consumption); type: biochemical; conditions: 1.2 mM
Protocol: The freshly isolated liver or VX2 tumor tissues (15-20 g wet weight) was rinsed in 3 volumes of H-medium (210 mM D-mannitol, 70 mM sucrose, 2 mM Hepes, and 0.05% bovine albumin, pH 7.4) at 4° C. and minced with a razor blade as finely as possible. A 30% (V/V) suspension was made using ice-cold H-medium in a Potter-Elvehjem glass homogenizer (55 ml capacity), and homogenization was achieved by applying 4 complete up and down strokes through the suspension with a rotating (˜400 rpm), serrated, teflon pestle attached to a motor. To remove cell debris and nuclei, the resultant homogenate was diluted to twice the initial volume and centrifuged at 630×g for 8 minutes at 4° C. in a Sorvall RC-2B centrifuge using a GSA rotor. The supernatant was removed and then centrifuged at 6,800 g for 15 min under the same conditions. The resultant supernatant was saved and referred to here as the cytosolic faction. […]
Oxygen consumption rates were measured polarographically using a Clark oxygen electrode inserted into a 2.5 ml chamber equipped with a magnetic stirrer. […] The loss of oxygen was monitored in a 2.1 ml system at 25° C. containing 1 mg mitochondria, 0.5 mM EDTA, 2.0 mM Hepes, 220 mM D-mannitol, 70 mM sucrose, 2.5 mM KPi, 2.6 mM MgCl2, and 0.5 mg/ml bovine albumin, and, where indicated, 7.8 mM succinate (respiratory substrate), and 0.24 mM ADP (ATP synthesis substrate). […]

[2] = test system: hexokinase bound to the mitochondrial fraction of the VX2 tumor; test: Hexokinase activity of the VX2 tumor mitochondrial fraction; type: biochemical, rabbit; conditions: 5 mM, VX2 tumor mitochondria
Protocol: The freshly isolated liver or VX2 tumor tissues (15-20 g wet weight) was rinsed in 3 volumes of H-medium (210 mM D-mannitol, 70 mM sucrose, 2 mM Hepes, and 0.05% bovine albumin, pH 7.4) at 4° C. and minced with a razor blade as finely as possible. A 30% (V/V) suspension was made using ice-cold H-medium in a Potter-Elvehjem glass homogenizer (55 ml capacity), and homogenization was achieved by applying 4 complete up and down strokes through the suspension with a rotating (˜400 rpm), serrated, teflon pestle attached to a motor. To remove cell debris and nuclei, the resultant homogenate was diluted to twice the initial volume and centrifuged at 630×g for 8 minutes at 4° C. in a Sorvall RC-2B centrifuge using a GSA rotor. The supernatant was removed and then centrifuged at 6,800 g for 15 min under the same conditions. The resultant supernatant was saved and referred to here as the cytosolic faction. The pellet was resuspended in the initial volume of H-medium and centrifuged twice at 9,800×g for 15 min at 4° C. The washed pellet represents the mitochondrial fraction.
The assay coupled the glucose-6-phosphate formed in the hexokinase reaction to the glucose-6-phosphate dehydrogenase reaction. Here, NADP+, oxidizes glucose-6-phosphate to a g-lactone while becoming reduced to NADPH, thus allowing the formation of the latter to be monitored spectrophotometrically at 340 nm. […]

AS-30D hepatoma cells = test: Hepatoma cell viability by trypan blue; type: cell-based, rat; conditions: 5 mM, 12 h
Protocol: AS-30D hepatoma cells grown in the peritoneal cavity of Sprague Dawley female rats (see Materials) were adapted to grow in tissue culture in Dulbecco's modified Eagle's medium containing 10% fetal bovine serum. Cells were maintained at 37° C. in a humidified atmosphere containing 5% CO2, and counted in a Neubauer chamber after trypan blue dye addition (cell/dye volume=1/1) by visualization under a Nikon inverted microscope.
The studies described above using the VX2 tumor model for liver cancer predict that 2DOG and 3BrPA may have the capacity to kill hepatoma cells expressing the high glycolytic/high hexokinase phenotype. […] Cell killing was assessed in these experiments by counting those cells in which trypan blue had entered.

[3] = test system: surrounding liver tissue and major tissues; test: Histology of surrounding liver and major tissues after intraarterial injection or embolization; conditions: rabbit, in vivo
Protocol: Administration of anesthesia, intravenous access and sodium pentothal anesthesia were carried out as described in Example 12. Transcatheter hepatic artery injection of 3-BrPA was performed under fluoroscopy. The animals were brought to the angiography suite and intubated using a size 3.0 mm endotracheal tube (Mallinkrodt Medical, St. Louis, Mo.) but not ventilated. Surgical cut-down was performed to gain access into the right common femoral artery, after which a 3 French sheath (Cook Inc., Bloomington, Ind.) was placed. A specially manufactured 2 French catheter with a tip in the shape of a hockey-stick (JB1 catheter, Cook Inc., Bloomington, Ind.) was manipulated into the celiac axis after which a celiac arteriogram was performed in order to delineate the blood supply to the liver and confirm the location of the tumor. The tumor could readily be visualized as a region of hypervascular blush located on the left side of the liver near the gastric fundus. […]
Normal tissues and tumors were fixed in 10% formalin, sliced at […] intervals for gross examination, and then embedded completely in paraffin after which […] sections were stained with hemotoxylin and eosin. Tumor viability was estimated by visual inspection and expressed as a percentage of viable tumor area for each slice. The overall percentage of viable tumor in each rabbit was calculated. […]

[4] = test system: rabbits harboring liver implanted VX2 tumors; test: Systemic delivery via marginal ear vein, animal toxicity; type: in vivo, rabbit; conditions: 25 ml, 0.5 mM via a marginal ear vein
Protocol: Normal tissues and tumors were fixed in 10% formalin, sliced at […] intervals for gross examination, and then embedded completely in paraffin after which […] sections were stained with hemotoxylin and eosin. Tumor viability was estimated by visual inspection and expressed as a percentage of viable tumor area for each slice. The overall percentage of viable tumor in each rabbit was calculated.
Finally, it was important to examine the effect of 3-BrPA when delivered systemically (i.e., via the general circulation) on both animal toxicity and its capacity to damage liver implanted tumors.

## O=C(O)C(=O)CBr [3BrPA, 3-bromopyruvic acid]
[1]
  inhibition of mitochondrial respiration (basal succinate rate and ADP stimulated rate): completely inhibits
[2]
  inhibition of the hexokinase reaction: inhibits completely
AS-30D hepatoma cells
  cells killed (trypan blue uptake): killing all cells
[3]
  damage to 9 major tissues: In no case was there evidence for damage
  state of portal veins, sinusoids and bile ducts: remained completely intact
[4]
  animal behavior: normal behavior
[4]; 4 days
  histological examination of 9 major tissues: no obvious damage
